Experimental data as given in patent US20160193179A1, “Treatment of Cardiovascular Risk in Diabetic Patients” (EVOLVA SA, priority 2012, published 2016).

What was measured:
[1] = system: 6-keto PGF1α secretion by HUVEC; test: 6-keto PGF1α EIA, secretion by HUVEC; assay type: cell-based, human; conditions: HUVEC 6 h
Experimental: 6-ketoPGF1α secretion is evaluated using a specific EIA assay. Results are expressed in picograms of 6-ketoPGF1α reported to micrograms of proteins measured by the Folin method on cell lysates. Data are means±S.D. (n=3). Statistical analysis: one way ANOVA followed by Bonferroni, Versus CTL, * p<0.05.
HUVEC are seeded at 25,000 cells/well on gelatin-coated 24-well plate (Corning) in EGM. After 48 h, cell medium is replaced by EBM containing or not containing Compound 3 at different concentrations. After 1 h of preincubation, 1 ng/ml TNFα is added or is not added to the wells. 6 h after adding TNFα, medium of each well is collected and cell lysis is performed in NaOH 0.5 N for 30 min. PTX3 secretion in the incubation medium is assayed using specific ELISAs (#DPTX30, Quantikine, R&D Systems, USA) according to the procedure provided by the supplier. 6-ketoPGF1α levels in cell culture media are determined using a competitive assay (#515211, Cayman, USA). Results are expressed in picograms of PTX3 or 6-ketoPGF1α reported to micrograms of proteins measured by the Folin method (Folin-Ciocalteu's phenol reagent, Merck, Germany) in cell lysates.

PARP cleavage in HUVEC = test: PARP-1 cleavage (apoptosis) by western blot in HUVEC; assay type: cell-based, human
Experimental: FIGS. 3C and 3D show the effect of Compound 3 on PARP cleavage induced by TNFα in HUVEC after 6 h of incubation. C) Total protein extracts are recovered and analysed by western blot. β-actin serves as the loading control. D) Quantification of optical density of each band and expression of the ratio between the optical density of PARP cleavage and the total of PARP.
HUVEC are seeded at 187,500 cells/flask in gelatin-coated T75 in EGM. After 4 days, cell medium is replaced by EBM containing or not containing Compound 3 at different concentrations. After 1 h of preincubation, 1 ng/ml TNFα is added or is not added into the T75 flasks. 6 h after, cell media are collected and centrifuged at 500 g for 5 min to pellet and pool floating cells with adherent cells. Adherent cells are washed twice with cold PBS and are collected in 1.5 ml of PBS. Harvested cells are then centrifuged at 500 g for 5 min at 4° C. […] Protein concentration is measured using Pierce method (Pierce 660 nm protein assay, Thermoscientific, USA) with the Ionic Detergent Compatibility Reagent (Thermoscientific, USA). […] Antibody binding was analysed with the scanner Odyssey Image System (Li-COR, Biosciences, USA) and Odyssey V3.0 software. Optical density of each band is also determined by using the software.

[2] = system: human coronary artery smooth muscle cells; test: Human coronary artery smooth muscle cell proliferation (WST-1); assay type: cell-based; conditions: growth factor media; Compound 3 50 nM, 500 nM, 5 μM added 1 h before U46619; 48 h; WST-1
Experimental: Human coronary artery SMC is cultured in SmGM2 kit medium. At 80% confluence, the SMCs are trypsinized and resuspended in either DMEM supplemented with 2% FCS (“low serum media”), or in SmGM2 kit medium containing 5% FCS, 2 ng/ml FGF, 0.5 ng/ml EGF, 5 μg/ml insulin (“growth factor media”). Subsequently, 5000 cells in 200 μL are added to each well in a 96-well plate and left to adhere overnight. Either vehicle or Compound 3 (50 nM, 500 nM, 5 μM) is added to the wells 1 h before U 46619 at different concentrations (0.1 nM to 10 μM) and incubated for another 48 h. All experiments are repeated 3-5 times for each experimental condition.
Cell proliferation is evaluated using WST-1 reagent according to the manufacturer's instructions. In brief, after replacement of phenol red containing media by 200 μL transparent serum-supplemented DMEM, 10 μL of diluted WST-1 reagent is added to each well at the end of the 48 h incubation period. After 1 h incubation at 37° C., the absorbance of the formazan dye formed is measured at 440 nm using a microplate reader.
All results are expressed as mean±SE. Statistically significant differences are determined by a one-way analysis of variances, followed by Holm-Sidak post hoc test, for multiple comparisons, using Sigma Stat software. A P value of less than 0.05 is considered significant.

TP receptor = target: T1, TP receptor (Homo sapiens, UniProt P21731); conditions: 0.125 to 2.5 mg/kg; cited from earlier work
T1 sequence (P21731 1-343): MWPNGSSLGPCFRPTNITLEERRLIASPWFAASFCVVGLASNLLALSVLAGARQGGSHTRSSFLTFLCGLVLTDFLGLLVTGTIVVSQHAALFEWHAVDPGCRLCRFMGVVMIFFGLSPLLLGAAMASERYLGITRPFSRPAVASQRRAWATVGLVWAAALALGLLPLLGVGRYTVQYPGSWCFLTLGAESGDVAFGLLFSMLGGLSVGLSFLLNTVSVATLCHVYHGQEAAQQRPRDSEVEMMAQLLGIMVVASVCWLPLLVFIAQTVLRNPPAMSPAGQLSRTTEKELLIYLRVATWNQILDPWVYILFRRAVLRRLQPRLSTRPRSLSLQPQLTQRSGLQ

CC(C)(C)N.O=C(O)CC/C=C\C[C@@H]1CO[C@H](c2ccccc2Cl)O[C@@H]1c1ccccc1O [Compound 3, tert-butylammonium (Z)-6-((2S,4S,5R)-2-(2-chlorophenyl)-4-(2-hydroxyphenyl)-1,3-dioxan-5-yl)hex-4-enoate]
6-keto PGF1α secretion ([1]; 600 nM Compound 3 together with 1 ng/ml TNFα): significant increase
6-keto PGF1α secretion ([1]; Compound 3 alone, without TNFα): do not increase
induction of apoptosis (PARP cleavage) by the compound itself (PARP cleavage in HUVEC; HUVEC 6 h, without TNFα): does not induce apoptosis
PARP cleavage induced by TNFα (PARP cleavage in HUVEC; HUVEC, TNFα 6 h, western blot): does not decrease
SMC proliferation induced by U46619 [2]: significantly and concentration-dependently inhibits
TP receptor activation in vivo (TP receptor): antagonize TP receptor activation in vivo
